Legend:
CLK3 kinase = CLK3 kinase (Homo sapiens, UniProt P49761); assay: CLK3 kinase activity assay (Z-lyte FRET); assay type: biochemical; conditions: Z-lyte Ser/Thr 18 peptide, 156 μM ATP, 1 h at room temperature;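 also: kinase activity read as coumarin/fluorescein emission ratio by FRET, unphosphorylated peptide as 0% and phosphorylated peptide as 100% control, values from non-linear regression of dose-response curves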
CLK2 kinase = CLK2 kinase (Homo sapiens, UniProt P49760); assay: CLK2 kinase activity assay (Z-lyte FRET); assay type: biochemical; conditions: Z-lyte Ser/Thr 6 peptide, 60 μM ATP, 1 h at room temperature;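 also: FRET read-out as coumarin to fluorescein emission ratio, unphosphorylated peptide as 0% and phosphorylated peptide as 100% controls, duplicate reactions, non-linear regression fit of dose-response curves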
[1] = tested on: Wnt pathway activity (SW480 colon carcinoma cells stably expressing the Sp5-Luc reporter); assay: Wnt pathway activity screening assay (Sp5-Luc reporter gene assay); conditions: Homo sapiens, SW480, Table 4; SW480 cells stably expressing Sp5-Luc reporter, 10-point dose-response from 10 μM, 36 to 48 hours
[2] = tested on: primary human mesenchymal stem cells (hMSCs); assay: Chondrogenesis screening using primary human mesenchymal stem cells; assay type: cell-based; conditions: Homo sapiens, Mesenchymal stem cells, hMSC chondrogenesis; for EC50: concentration required to induce 50% levels of chondrogenesis with TGF-β3 as positive control, read-out: Conc (nM) of 50% TGF-β3 activity; for Emax: maximum activity relative to TGF-β3 (10 ng/mL) positive control, read-out: Max. Activity as % TGF-β3 activity
Outline: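 Derived values are EC50 for 50% chondrogenesis, maximal activity and the dose giving it. These come from nodule area in passage 3–6 primary hMSCs, expressed as fold change over the mean of 3 same-plate DMSO wells, 2–3 replicates per concentration. TGF-β3 served as positive control.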

CLK3 kinase, sequence (P49761 whole entry): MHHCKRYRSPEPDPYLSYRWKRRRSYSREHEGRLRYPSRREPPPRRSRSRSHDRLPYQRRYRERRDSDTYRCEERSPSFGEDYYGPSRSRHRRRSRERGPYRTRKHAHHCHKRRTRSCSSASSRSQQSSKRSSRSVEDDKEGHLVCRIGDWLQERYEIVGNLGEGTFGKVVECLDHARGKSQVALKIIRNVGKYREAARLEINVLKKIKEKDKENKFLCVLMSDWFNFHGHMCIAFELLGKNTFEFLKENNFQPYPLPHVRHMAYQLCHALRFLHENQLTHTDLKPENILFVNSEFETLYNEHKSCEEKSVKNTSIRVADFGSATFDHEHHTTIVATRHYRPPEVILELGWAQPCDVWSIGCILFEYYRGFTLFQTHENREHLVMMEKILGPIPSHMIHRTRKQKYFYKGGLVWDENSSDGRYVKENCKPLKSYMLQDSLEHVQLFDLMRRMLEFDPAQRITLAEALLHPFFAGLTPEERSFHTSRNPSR
CLK2 kinase, sequence (P49760 whole entry): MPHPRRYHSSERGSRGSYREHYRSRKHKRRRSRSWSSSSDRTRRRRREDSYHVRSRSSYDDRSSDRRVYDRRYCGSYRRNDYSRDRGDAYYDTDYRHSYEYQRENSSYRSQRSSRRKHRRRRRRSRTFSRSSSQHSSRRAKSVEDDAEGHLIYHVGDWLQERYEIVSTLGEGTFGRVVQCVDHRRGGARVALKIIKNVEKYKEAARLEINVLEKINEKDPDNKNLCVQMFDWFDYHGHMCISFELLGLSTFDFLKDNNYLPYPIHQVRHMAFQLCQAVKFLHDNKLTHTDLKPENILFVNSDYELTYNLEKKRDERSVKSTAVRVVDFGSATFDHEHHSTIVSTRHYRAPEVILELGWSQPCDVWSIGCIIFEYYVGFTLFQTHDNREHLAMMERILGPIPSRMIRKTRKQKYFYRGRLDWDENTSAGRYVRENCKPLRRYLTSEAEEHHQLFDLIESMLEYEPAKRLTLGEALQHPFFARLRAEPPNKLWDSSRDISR

| EC50 (CLK3 kinase) | EC50 (CLK2 kinase) | EC50 [1] | EC50 [2] | Structure (SMILES) | Emax [2] |
| --- | --- | --- | --- | --- | --- |
| 82 nM | 3 nM | > 10000 nM | 20.6 nM | CCNCc1cncc(-c2ccc3[nH]nc(-c4nc5c(-c6cc(F)cc(NCCN(C)C)c6)ccnc5[nH]4)c3n2)c1 [compound 286] | 149% |
| 37 nM | 11 nM | 30.4 nM | 30 nM | Cc1ccncc1-c1cc2c(-c3nc4c(-c5cc(F)cc(CNS(C)(=O)=O)c5)cccc4[nH]3)n[nH]c2cn1 [compound 288] | 81.8% |
| 39 nM | 4 nM | 124 nM | 10 nM | Cc1ccncc1-c1cnc2[nH]nc(-c3nc4c(-c5cc(F)cc(CNS(C)(=O)=O)c5)nccc4[nH]3)c2c1 [compound 289] | 92.8% |
| 54 nM | 32 nM | 109 nM | 30 nM | Cc1ccncc1-c1cc2c(-c3nc4c(-c5cc(F)cc(CNS(C)(=O)=O)c5)ccnc4[nH]3)n[nH]c2cn1 [compound 291] | 70% |
| 60 nM | 9 nM | 5 nM | 100 nM | CC(C)CC(=O)Nc1cncc(-c2ccc3[nH]nc(-c4nc5c(-c6cc(F)cc(CNS(C)(=O)=O)c6)cncc5[nH]4)c3c2)c1 [compound 292] | 118% |
| 186 nM | 16 nM | 40.5 nM | 30 nM | CS(=O)(=O)NCc1cc(F)cc(-c2nccc3[nH]c(-c4n[nH]c5ccc(-c6cncnc6)cc45)nc23)c1 [compound 293] | 73.1% |
| 25 nM | 1 nM | 21 nM | 30 nM | CN(C)Cc1cncc(-c2cnc3[nH]nc(-c4nc5c(-c6cc(F)cc(N7CCOCC7)c6)cncc5[nH]4)c3c2)c1 [compound 294] | 114% |
| 96 nM | 2 nM | 377 nM | 30 nM | COc1cccc(-c2nccc3[nH]c(-c4n[nH]c5ccc(-c6cccnc6)nc45)nc23)c1 [compound 295] | 50.6% |
| 55 nM | 1 nM | > 10000 nM | 30 nM | COc1cccc(-c2cncc3[nH]c(-c4n[nH]c5ccc(-c6cccnc6)nc45)nc23)c1 [compound 296] | 59.2% |
| 84 nM | 1 nM | 1610 nM | 100 nM | COc1cccc(-c2ccnc3[nH]c(-c4n[nH]c5ccc(-c6cccnc6)nc45)nc23)c1 [compound 297] | 50.5% |
| 122 nM | 8 nM | 572 nM | – | Fc1cccc(-c2cncc3[nH]c(-c4n[nH]c5ncc(-c6cccnc6)cc45)cc23)c1 [compound 300] | 35.6% |
| 105 nM | 8 nM | 1350 nM | – | Fc1cccc(-c2nccc3[nH]c(-c4n[nH]c5ccc(-c6cccnc6)nc45)cc23)c1 [compound 301] | 44.8% |
| 46 nM | 6 nM | 45 nM | – | CCC(=O)Nc1cncc(-c2ccc3[nH]nc(-c4cc5c(-c6cccc(F)c6)nccc5[nH]4)c3c2)c1 [compound 302] | 16.2% |
| 85 nM | 15 nM | 45 nM | – | CCC(=O)Nc1cncc(-c2ccc3[nH]nc(-c4cc5c(-c6cccc(F)c6)cncc5[nH]4)c3c2)c1 [compound 303] | 33.5% |
| 21 nM | 16 nM | 13.2 nM | – | CCC(=O)Nc1cncc(-c2ccc3[nH]nc(-c4cc5c(-c6cccc(F)c6)ccnc5[nH]4)c3c2)c1 [compound 304] | 167% |
| 33 nM | 3 nM | 246 nM | – | CCC(=O)Nc1cncc(-c2cnc3[nH]nc(-c4cc5c(-c6cccc(F)c6)cncc5[nH]4)c3c2)c1 [compound 305] | 113% |
| 138 nM | 8 nM | 305 nM | 30 nM | CCC(=O)Nc1cncc(-c2cc3c(-c4cc5c(-c6cccc(F)c6)nccc5[nH]4)n[nH]c3cn2)c1 [compound 306] | 50.8% |
| 307 nM | 13 nM | 1730 nM | – | CC(C)C(=O)Nc1cncc(-c2cc3c(-c4cc5c(-c6cccc(F)c6)cncc5[nH]4)n[nH]c3cn2)c1 [compound 307] | 42.2% |
| 83 nM | 7 nM | 2940 nM | – | CN(C)Cc1cncc(-c2ccc3[nH]nc(-c4cc5c(-c6cccc(F)c6)nccc5[nH]4)c3c2)c1 [compound 308] | 42% |
| 37 nM | 3 nM | 1280 nM | – | CN(C)Cc1cncc(-c2ccc3[nH]nc(-c4cc5c(-c6cccc(F)c6)cncc5[nH]4)c3c2)c1 [compound 309] | 193% |

| EC50 (CLK3 kinase) | EC50 (CLK2 kinase) | EC50 [1] | EC50 [2] | Structure (SMILES) | Emax [2] |
| --- | --- | --- | --- | --- | --- |
| 74 nM | 4 nM | 1180 nM | 10 nM | CN(C)Cc1cncc(-c2cnc3[nH]nc(-c4cc5c(-c6cccc(F)c6)cncc5[nH]4)c3c2)c1 [compound 310] | 110% |
| 218 nM | 3 nM | 1850 nM | 30 nM | CN(C)Cc1cncc(-c2cc3c(-c4cc5c(-c6cccc(F)c6)nccc5[nH]4)n[nH]c3cn2)c1 [compound 311] | 60% |
| 252 nM | 4 nM | 3750 nM | – | Fc1cccc(-c2nccc3[nH]c(-c4n[nH]c5ccc(-c6cncc(CN7CCCCC7)c6)nc45)cc23)c1 [compound 312] | 48% |
| 295 nM | 18 nM | 3120 nM | – | Fc1cccc(-c2cncc3[nH]c(-c4n[nH]c5ncc(-c6cncc(CN7CCCCC7)c6)cc45)cc23)c1 [compound 313] | 108% |
| 202 nM | 10 nM | 844 nM | 30 nM | O=C(Nc1cncc(-c2cc3c(-c4cc5c(-c6ccc(F)cc6)nccc5[nH]4)n[nH]c3cn2)c1)C1CC1 [compound 314] | 96.2% |
| 139 nM | 3 nM | 3620 nM | – | Fc1ccc(-c2nccc3[nH]c(-c4n[nH]c5ccc(-c6cncc(CN7CCCC7)c6)cc45)cc23)cc1 [compound 315] | 98.5% |
| 417 nM | 7 nM | 291 nM | 10 nM | Fc1ccc(-c2nccc3[nH]c(-c4n[nH]c5cnc(-c6cncc(CN7CCC(F)(F)C7)c6)cc45)cc23)cc1 [compound 316] | 61.2% |
| 9840 nM | 16 nM | 3260 nM | 100 nM | Fc1ccc(-c2cncc3[nH]c(-c4n[nH]c5cnc(-c6cncc(CN7CCC(F)(F)C7)c6)cc45)cc23)cc1 [compound 317] | 78.4% |
| 817 nM | 6 nM | 594 nM | – | Fc1ccc(-c2cncc3[nH]c(-c4n[nH]c5ncc(-c6cncnc6)cc45)cc23)cc1 [compound 319] | 23.8% |
| 33 nM | 9 nM | 131 nM | – | Nc1cncc(-c2ccc3[nH]nc(-c4cc5c(-c6ccccc6F)ccnc5[nH]4)c3c2)c1 [compound 320] | 23.5% |
| 67 nM | 7 nM | 197 nM | 30 nM | Nc1cncc(-c2cnc3[nH]nc(-c4cc5c(-c6ccccc6F)nccc5[nH]4)c3c2)c1 [compound 321] | 86% |
| 66 nM | 6 nM | 745 nM | – | Nc1cncc(-c2cnc3[nH]nc(-c4cc5c(-c6ccccc6F)ccnc5[nH]4)c3c2)c1 [compound 322] | 27.6% |
| 59 nM | 2 nM | 224 nM | 10 nM | Nc1cncc(-c2cc3c(-c4cc5c(-c6ccccc6F)nccc5[nH]4)n[nH]c3cn2)c1 [compound 323] | 117% |
| 205 nM | 6 nM | 1630 nM | – | Nc1cncc(-c2cc3c(-c4cc5c(-c6ccccc6F)cncc5[nH]4)n[nH]c3cn2)c1 [compound 324] | 15.5% |
| 144 nM | 10 nM | 605 nM | – | CC(C)CC(=O)Nc1cncc(-c2ccc3[nH]nc(-c4cc5c(-c6ccccc6F)nccc5[nH]4)c3n2)c1 [compound 326] | 36.3% |
| 414 nM | 10 nM | 1030 nM | 30 nM | CC(C)(C)CC(=O)Nc1cncc(-c2cc3c(-c4cc5c(-c6ccccc6F)nccc5[nH]4)n[nH]c3cn2)c1 [compound 327] | 54.3% |
| 47 nM | 6 nM | 321 nM | 30 nM | O=C(Nc1cncc(-c2cnc3[nH]nc(-c4cc5c(-c6ccccc6F)nccc5[nH]4)c3c2)c1)C1CC1 [compound 328] | 78.1% |
| 42 nM | 8 nM | 390 nM | – | O=C(Nc1cncc(-c2cnc3[nH]nc(-c4cc5c(-c6ccccc6F)cncc5[nH]4)c3c2)c1)C1CC1 [compound 329] | 52.1% |
| 109 nM | 12 nM | 642 nM | – | O=C(Nc1cncc(-c2ccc3[nH]nc(-c4cc5c(-c6ccccc6F)nccc5[nH]4)c3n2)c1)C1CC1 [compound 330] | 24.8% |

— US20230000842A1, “METHODS OF TREATING CARTILAGE DISORDERS THROUGH INHIBITION OF CLK AND DYRK” (SAMUMED, LLC, priority 2019, published 2023)
